# Assays:
# [1] = tested on: regulatory T cells (Tregs); test: Whole blood flow-cytometry pharmacodynamics, regulatory T cells; type: in vivo, humans; conditions: as plasma concentration of the test drug increased (FIG. 6A)
# Description: (§1) Blood samples for pharmacodynamic analyses of the test drug were collected in phase Ia (dose escalation part). Whole blood samples were evaluated by flow-cytometry after coimmunostaining for CD3^+, CD4^+, CD25^+, CD127low and CD8^+. Through this, we tried to observe the effects of the test drug on regulatory T cells (Tregs) and CD8^+ T cells.
# [2] = tested on: CD8+ T cells; test: Whole blood flow-cytometry pharmacodynamics, CD8+ T cells; type: in vivo, humans; conditions: as plasma concentration of the test drug increased (FIG. 6B)
# Description: as §1
# [3] = tested on: subjects with advanced hematologic malignancies; test: Phase Ia dose escalation clinical trial: safety, tolerability, DLT and MTD/RP2D; type: in vivo
# Text: The phase Ia part (dose escalation) of this clinical trial is designed to determine safety, tolerability, and maximum tolerated dose (MTD)/starting dose (RP2D) for clinical phase Ib/II of the test drug in subjects with relapsed/refractory B-cell lymphoma, chronic lymphocytic leukemia (CLL)/small lymphocytic leukemia (SLL) and peripheral T-cell lymphoma (PTCL).
# A method for escalating a dose during the treatment period (phase Ia part) is as follows. At least of 1 and up to 6 subjects may be enrolled in cohorts 1 and 2. 3 to 6 subjects may be enrolled into subsequent cohorts.
# (2) Cohort 3 and all subsequent cohorts will follow the standard 3+3 design. […] If 1 of the 3 subjects experiences a DLT, that dose level will be expanded to 6 subjects (3 additional subjects will be enrolled). If 2 subjects at a given dose level experience a DLT, the maximum tolerated dose (MTD) will have been exceeded and further accrual to the cohort will be terminated. The next lower dose level will be expanded to 6 subjects or if 6 subjects have already been enrolled and no more than 1 of the 6 experienced a DLT, then this lower dose level will be considered the MTD (FIG. 3).
# The dose limiting toxicity (DLT) in this clinical trial may include the followings:
# 1) Assessed by adverse events, vital signs, electrocardiogram (ECG), clinical laboratory tests, physical examination, ECOG performance status up to the last Safety Follow-up Visit, and baseline medical conditions.
# 2) Tolerability assessment includes review of dose interruptions, reductions, and doses administered up to the last Safety Follow-up Visit.
# 3) Determination of the maximum tolerated dose (MTD) and the starting dose (RP2D) for clinical phase Ib/II are based on dose limiting toxicity (DLT) during Cycle 1.
# The number and proportion of subjects experiencing the dose limiting toxicity (DLT) are summarized based on the dose-limiting toxicity evaluable set. […] Estimation of maximum tolerated dose (MTD)/recommended dose for clinical phase Ib/II (RP2D) are based upon the methods for determination of MTD/RP2D provided herein (see 3. Overall design, 2) How to escalate dose of test drug).
# A treatment emergent adverse event (TEAE) is defined as any AE that occurs after the first administration of the test drug through 30 days after the last administration of the test drug, or any event that is present at baseline but worsens in severity. […] All the adverse events and toxicities are graded according to CTCAE (version 5.0). Analysis may include, but is not limited to, the followings: […]
# [4] = tested on: advanced hematologic malignancies (PTCL, DLBCL, MZL, CTCL-MF); test: Phase Ia clinical trial: tumor response assessment; type: in vivo, humans
# Description: 1) Tumor response is assessed for both phases la and Ib. The anticancer activity of the test drug is assessed by applying various criteria through imaging tests every two cycles of clinical trials and at the end of therapy (EOT) (optional) (see table 14 for disease assessment criteria below), or for liquid tumors, bone marrow aspirates/biopsies and blood assessments are performed. Tumor response parameters that are assessed include the following: (1) Best overall response: complete response (CR), partial response (PR), stable disease (SD, lasting 12 weeks), or disease progression (DP) Details of the disease assessment criteria and the tools used to determine efficacy parameters are as follows (Table 14). The tumor response (lymphoma (B-cell and T-cell), CLL/SLL, Waldenstrom macroglobulinemia) following administration of the test drug in phases Ia and Ib is assessed using the criteria in table 14. Tumor response parameters vary according to the above applied criteria and may include the followings: The best overall response is defined as the best response across all time points (in the order of CR, PR, SD, and DP) post-treatment. The best overall response (CR, PR, SD, or DP) is summarized by number of subjects and percentages. In the case of best response equal to SD, the minimum duration for SD should be met. For the purpose of calculating an SD rate, the rate will be the percentage (%) of subjects who continue to have SD for at least 12 weeks.
# [5] = Plasma pharmacokinetic analyses in clinical trial subjects (C1D1, C1D15); type: in vivo, humans
# Text: 1) Plasma concentration-time profile of the test drug (days 1 and 15), urine concentration data (day 15), and derived single dose plasma PK and multiple dose plasma and urine PK parameters (if applicable). • Blood samples are collected according to a predetermined schedule to measure a plasma concentration of the test drug (Table 5). In phase Ia clinical trials, entire urine needs to be collected over each dosing interval according to a pre-determined schedule, starting after dose administration (Table 5).
# • Samples for the determination of the test drug in plasma and urine are analyzed using appropriate validated bioanalytical methods. • Pharmacokinetic parameters are derived using noncompartmental methods with Phoenix® WinNonlin® Version 8.0 or higher (Certara, L.P. Princeton, New Jersey, USA) and/or SAS® Version 9.2 or higher (SAS Institute, Inc., Cary, North Carolina, USA). Actual elapsed time from dosing will be used for the final plasma PK parameter calculations. A minimum of 3 quantifiable postdose concentrations will be required for all calculations. • The PK parameters to be determined for plasma concentration of the test drug on day 1 of cycle 1 and day 15 of cycle 1, if calculable, include but not be limited to the following parameters presented table 6.
# Plasma concentrations and PK parameters of the test drug are listed and summarized by dose, cycle, and clinical trial phase using descriptive statistics.
# On the day 1 of cycle 1 (C1D1), plasma samples for pharmacokinetic analyses in clinical trial subjects were obtained before and after administration of the test drug (0.5, 1, 1.5, 2, 3, 4, 6, 9, 12 and 24 hours). As a result of the collected pharmacokinetic analyses, it was confirmed that a maximum plasma concentration after a single dose of 50 mg QD, 100 mg QD and 200 mg QD of the test drug ranged […], and a systemic exposure (based on AUC0-24) ranged from 2760 to 21850 ng*h per mL.
# [6] = of 11 clinical trial subjects, oral QD
# [7] = 11 of 12 subjects enrolled in phase Ia assessed
# [8] = multiple dosing (C1D15), 50 mg to 200 mg cohort
smiles,measurement,setting,value
"C[C@H](Nc1ncnc2[nH]ccc(=O)c12)c1c(Cl)c2cccc(Cl)c2c(=O)n1-c1ccccc1 [test drug, 4-[[(1S)-1-(4,8-dichloro-1-oxo-2-phenyl-3-isoquinolyl)ethyl]amino]-8H-pyrido[2,3-d]pyrimidin-5-one]",change of regulatory T cells (Tregs) compared to the baseline value,[1],decreased
same,change of CD8+ T cells compared to the baseline value,[2],increased
same,dose limiting toxicities (DLTs) observed,"[3]; cohort 4, 325 mg QD",two
same,serious adverse events rated as grades 3 (severe) to 5 (death),"[3]; cohorts 1 to 3 (50, 100, 200 mg QD)",no serious adverse events
same,subjects with TEAEs evaluated to be related to the test drug,"[3]; cohorts 1 to 3 (50, 100, 200 mg QD), 3 of 5 subjects",60.0%
same,subjects with treatment-emergent adverse events (TEAEs),"[3]; cohorts 1 to 3 (50, 100, 200 mg QD), 4 out of 5 subjects",80.0%
same,administration-related deaths,"[3]; cohorts 1 to 3, 5 subjects",no administration-related deaths occurred
same,subjects with TEAE of grade 1 (mild),"[3]; cohorts 1 to 3, 5 subjects",1 subject
same,subjects with TEAE of grade 2 (moderate),"[3]; cohorts 1 to 3, 5 subjects",2 subjects
same,subjects with TEAE of grade 4 (life-threatening),"[3]; cohorts 1 to 3, 5 subjects, thrombocytopenia, not related to the test drug",1 subject
same,dose limiting toxicity (DLT),"[3]; dose range of cohorts 1 to 3 (50, 100, 200 mg QD)",no dose limiting toxicity
same,tolerability,[3]; dose range up to 200 mg QD,excellent
same,dose limiting toxicity (DLT),"[3]; expansion cohort 200 mg QD, 6 subjects",No dose limiting toxicity
same,subjects showing grade 3 skin reaction,[3]; [6],2 subjects
same,subjects showing hepatotoxicity,[3]; [6],3 subjects
same,maximum tolerated dose (MTD),"[3]; oral, 28-day cycle, phase Ia",200 mg QD
same,recommended starting dose (RP2D) for clinical phase Ib/II,[3]; recommended by the Safety Monitoring Committee,200 mg QD
same,"outcome of adverse events (skin reaction, hepatotoxicity)",[3]; upon discontinuation of the test drug,manageable and recovered to grade 0 or 1
same,complete response (CR),[4]; 8 subjects diagnosed with PTCL,1 subject
same,disease control rate (DCR),[4]; 8 subjects diagnosed with PTCL,87.5%
same,disease progression (PD),[4]; 8 subjects diagnosed with PTCL,1 subject
same,partial responses (PR),[4]; 8 subjects diagnosed with PTCL,2 subject
same,complete response (CR),[4]; [7],1 subject
same,disease progression (PD),[4]; [7],2 subjects
same,partial response (PR),[4]; [7],2 subjects
same,activity in peripheral T-cell lymphoma (PTCL) subjects,"[4]; PTCL subjects, phase Ia",preliminary activity
same,dose dependence of exposure concentration,"[5]; C1D1, dose range of 50 mg to 200 mg (FIG. 4)",increased in a dose-dependent manner
same,maximum plasma concentration,"[5]; C1D1, single dose of 50, 100 and 200 mg QD, plasma",≤ 2443 ng/mL
same,increase in exposure based on AUCtau,[5]; [8],~4.97 fold
same,increase in exposure based on Cmax,[5]; [8],~2.92 fold
same,dose dependence of exposure concentration,"[5]; multiple dosing (C1D15), dose range of 50 mg to 200 mg (FIG. 5)",increased in a dose-dependent manner
same,accumulation,"[5]; multiple dosing, dose range of 50 mg to 200 mg",no accumulation observed

# Reference: patent publication US20240307397A1, “PHARMACEUTICAL COMPOSITION COMPRISING PI3K AND DNA-PK DUAL INHIBITOR FOR PREVENTING OR TREATING PERIPHERAL T CELL LYMPHOMA” (BORYUNG CORPORATION, priority 2021, published 2024)
